Laboratory results taken from PMC7700029, “Repurposing Napabucasin as an Antimicrobial Agent against Oral Streptococcal Biofilms” (BioMed Research International, 2020).
Values after ≈ are worked out from the molar mass of the structure shown.

Experiments:
[1] = system: oral streptococcal multispecies biofilms; assay: Multispecies biofilm composition by FISH and qPCR; format: cell-based, S. mutans, S. gordonii, S. sanguinis; conditions: 62.5 μg/mL NAP, 5 min three times per day for 3 days; for total amount of streptococci: 0.2% CHX
Protocol: The multispecies biofilms were cultivated in accordance with a previous study. Overnight cultures of S. mutans, S. gordonii, and S. sanguinis were simultaneously inoculated (inoculum ratio = 1 : 1 : 1). The chemotaxis chamber μ-Slide, which has extremely low values of birefringence and autofluorescence, was used for bacterial culture and confocal microscopy. Bacterial suspensions (1 × 10^5CFU/mL for each strain) were mixed in 300 μL BHI containing 1% sucrose (BHIS) in the μ-Slide (8 wells, 80826, Ibidi) at 37°C for 24 h. Then, biofilms were exposed to PBS, 62.5 μg/mL NAP, and 0.2% CHX for 3 days (5 min, three times per day). This short-term repeated treatment was to simulate the daily exposure to the mouth rinses. For fluorescent in situ hybridization imaging, biofilms were fixed in 4% paraformaldehyde overnight and investigated by species-specific probes. The multispecies biofilms were imaged with a confocal laser scanning microscope (FV1000, Olympus, Tokyo, Japan). Total DNA of biofilms were isolated and purified using a TIANamp Bacteria DNA kit (TIANGEN, Beijing, China). The purity and concentration of DNA were detected with a NanoDrop 2000 spectrophotometer (Thermo Scientific, Waltham, MA, USA). The extracts were stored at -20°C until use. TaqMan real-time polymerase chain reaction (Life Technologies, Carlsbad, CA, USA) was used to quantify the absolute number of S. mutans, S. gordonii, and S. sanguinis as described by the manufacturer (Takara, Dalian, China).

S. sanguinis biofilm [2] = assay: Biofilm formation inhibition, crystal violet (MBIC); format: cell-based, Streptococcus sanguinis; conditions: 24 h, 90% or more inhibition of biofilm formation
Protocol: (§1) The minimum biofilm inhibition concentration (MBIC) was used to evaluate the effect of NAP on biofilm formation. S. mutans, S. gordonii, or S. sanguinis (1 × 10^7CFU/mL, 10 μL/well) were grown in BHIS with twofold serial dilution of NAP (200 μL/well) ranging from 0.12 to 125 μg/mL at 37°C for 24 h. A parallel study was also performed with BHIS as a negative control. Then, the supernatants from the wells were decanted, and the adherent biofilm was washed three times with PBS to remove the planktonic cells. Fixed with methanol for 15 min and air-dried at room temperature, the biofilm was stained with 0.1% (wt/vol) crystal violet (Sigma) for 5 min, rinsed with deionized water until blank control wells were colorless, and added 200 μL of 95% ethanol to each crystal violet-stained well. Subsequently, the plate was rocked 30 min at room temperature, and the absorbance at 595 nm was recorded. The percentage of inhibition was calculated using the equation: (A595ofnegativecontrol − A595ofthetestgroup)/A595ofnegativecontrol × 100%.

S. gordonii biofilm [3] = assay: Reduction of 1-day-developed biofilm, crystal violet (MBRC); format: cell-based, Streptococcus gordonii; conditions: S. gordonii 1-day-developed biofilm, 24 h, 90% or more reduction
Protocol: (§2) The effect of NAP on the 1-day-developed biofilm was examined by the minimum biofilm reduction concentration (MBRC). S. mutans, S. gordonii, or S. sanguinis (1 × 10^7CFU/mL, 200 μL/well) in BHIS was added to a 96-well polystyrene tissue culture plate. After anaerobic incubation at 37°C for 24 h, the supernatants were removed and washed with PBS three times without disrupting the integrity of biofilms. Fresh BHIS containing NAP ranging from 0.12 to 125 μg/mL were added to each well and incubated at 37°C for 24 h. The negative control was biofilms in BHIS without NAP. The biofilm was fixed, air-dried, stained, and quantified as described above.

S. gordonii biofilm [4] = assay: Biofilm formation inhibition, crystal violet (MBIC); format: cell-based, Streptococcus gordonii; conditions: 24 h, 90% or more inhibition of biofilm formation
Protocol: as §1

S. sanguinis biofilm [5] = assay: Reduction of 1-day-developed biofilm, crystal violet (MBRC); format: cell-based, Streptococcus sanguinis; conditions: S. sanguinis 1-day-developed biofilm, 24 h, 90% or more reduction
Protocol: as §2

[6] = system: Streptococcus mutans UA159; assay: Bacterial susceptibility test, microdilution in BHI (MIC/MBC); format: cell-based; conditions: S. mutans, planktonic cells
Protocol: (§3) Streptococcus mutans UA159, Streptococcus gordonii DL1, and Streptococcus sanguinis ATCC 10556 were kindly provided by the State Key Laboratory of Oral Diseases (Sichuan University, Chengdu, China). S. mutans, S. gordonii, and S. sanguinis were routinely grown at 37°C under aerobic condition (5% CO2) in brain heart infusion broth (BHI; Difco, Sparks, MD). Inoculum for the experiment was adjusted to 1 × 10^8CFU/mL for S. mutans, S. gordonii, and S. sanguinis based on the OD600 nm versus CFU/mL graph of each bacterium and further 1 : 100 diluted in the growth culture. When needed, medium was supplemented with 1% sucrose (designated BHIS). The minimum inhibitory concentration (MIC) and minimum bactericidal concentration (MBC) of NAP against S. mutans, S. gordonii, and S. sanguinis were determined by a microdilution method in BHI, as described previously. The concentrations of NAP ranged from 0.97 to 1000 μg/mL (twofold dilutions). BHI broth containing equivalent DMSO (1% to 0.001%, v/v) was used as a solvent control and ran simultaneously to control for the possible growth inhibition caused by the added DMSO. CHX was used as a positive control, cell control (test bacteria and BHI broth) was used as a negative control, and BHI broth was used as a blank control.

[7] = system: Streptococcus gordonii DL1; assay: as above; format: cell-based; conditions: S. gordonii, planktonic cells
Protocol: as §3

[8] = system: Streptococcus sanguinis ATCC 10556; assay: as above; format: cell-based; conditions: ATCC10556, S. sanguinis, planktonic cells
Protocol: as §3

[9] = system: human gingival epithelial cells (HGE); assay: In vitro cytotoxicity/viability, CCK-8; format: cell-based; conditions: Epithelial cell, 5 min, 5 min exposure
Protocol: (§4) Cell viability was evaluated by using the Cell Counting Kit-8 (CCK-8, Dojindo, Kumamoto, Japan) assay as described by Park et al.. Test cells were human oral keratinocytes (HOK), human gingival epithelia (HGE), and macrophage RAW264.7 (RAW264.7). Cells were plated in 96-well plates at 10,000 cells/well in minimum essential medium with the Dulbecco's modified Eagle's medium (DMEM) supplemented with 10% fetal bovine serum and 1% antibiotic-antimycotic. The cells were grown in a humidified environment with 5% CO2 at 37°C for 24 hours. Considering the short exposure duration of oral cells to mouth rinses, cells were treated with medium containing NAP (0.12 to 62.5 μg/mL) and positive control CHX for 5 min [27–29]. Then, the cells were washed with PBS twice and were added with the fresh medium (200 μL/well). Each well was added with 10 μL of CCK-8, and after incubation in the CO2 incubator for 1 h to 1.5 h, absorbance was measured at the wavelength of 450 nm. The cell viability was calculated according to the following formula: (%) = (A450oftestgroup − A450ofblankcontrol)/(A450ofnegativecontrol − A450ofblankcontrol) × 100%.

macrophage RAW264.7 = assay: In vitro cytotoxicity/viability, CCK-8; format: cell-based; conditions: Mus musculus, 5 min, RAW264.7, 5 min exposure, read-out: IC50 (cell viability)
Protocol: as §4

[10] = system: human oral keratinocytes (HOK); assay: In vitro cytotoxicity/viability, CCK-8; format: cell-based; conditions: Keratinocyte, 5 min, 5 min exposure, read-out: IC50 (cell viability)
Protocol: as §4

S. mutans biofilm [11] = assay: Reduction of 1-day-developed biofilm, crystal violet (MBRC); format: cell-based, Streptococcus mutans; conditions: S. mutans 1-day-developed biofilm, 24 h, 90% or more reduction
Protocol: as §2

[12] = system: oral streptococcal multispecies biofilms; assay: Multispecies biofilm imaging (dead/live, EPS staining, CLSM); format: cell-based, S. mutans, S. gordonii, S. sanguinis; conditions: 5 min three times per day for 3 days; for structural integrity of multispecies biofilms: 0.2% CHX
Protocol: The multispecies biofilms were cultivated in accordance with a previous study. Overnight cultures of S. mutans, S. gordonii, and S. sanguinis were simultaneously inoculated (inoculum ratio = 1 : 1 : 1). The chemotaxis chamber μ-Slide, which has extremely low values of birefringence and autofluorescence, was used for bacterial culture and confocal microscopy. Bacterial suspensions (1 × 10^5CFU/mL for each strain) were mixed in 300 μL BHI containing 1% sucrose (BHIS) in the μ-Slide (8 wells, 80826, Ibidi) at 37°C for 24 h. Then, biofilms were exposed to PBS, 62.5 μg/mL NAP, and 0.2% CHX for 3 days (5 min, three times per day). This short-term repeated treatment was to simulate the daily exposure to the mouth rinses.
For dead/live imaging, biofilms were stained with fluorescent LIVE/DEAD BacLight Bacterial Viability stain (Molecular Probes, Invitrogen) containing SYTO 9 and propidium iodide according to the manufacturer's instructions. The labeled biofilms were imaged with a DMIRE2 confocal laser scanning microscope (Leica, Wetzlar, Germany) equipped with a 60x oil immersion objective lens.
For extracellular polysaccharide (EPS) staining, the bacterial cell and the EPS were stained with SYTO 9 (Molecular Probes) and Alexa Fluor 647-labeled dextran conjugate (Molecular Probes) as described previously. The biofilms were captured with a Leica DMIRE2 confocal laser scanning microscope as in live/dead imaging.
All three-dimensional reconstructions of the biofilms were performed with Imaris 7.0.0 (Bitplane, Zürich, Switzerland). The quantification of the dead/live and EPS/bacteria volume ratio was, respectively, performed with Image-Pro Plus (Media Cybernetics, Silver Spring, MD, USA) and COMSTAT (http://www.image-analysis.dk).

[13] = system: multispecies biofilms on human enamel slabs; assay: Biofilm-induced demineralization of human enamel slabs, transverse microradiography; format: cell-based, S. mutans, S. gordonii, S. sanguinis; conditions: 62.5 μg/mL NAP, 0.2% CHX, 5 min three times per day for 5 days; compared to negative control
Description: Human teeth free of white spots, cracks, and other defects that had been extracted for periodontal or impacted reasons were collected under a protocol approved by the Ethics Committee of West China Hospital of Stomatology, Sichuan University (WCHSIRB-D-2018-107). Crowns were separated from roots and cut into four sections measuring 5mm × 5mm × 2mm by using a diamond-coated saw (Struers Minitom; Struers, Copenhagen, Denmark) under continuous water cooling. The enamel slabs were embedded in polymethylmethacrylate and painted with two layers of acid-resistant nail varnish, leaving a 4mm × 4mm window of the exposed enamel surface. Then, these surfaces were polished progressively with waterproof silicon carbide abrasive papers (800–4000 grit; Struers, Copenhagen, Denmark) and were ultrasonically cleaned in a deionized water for 5 min to remove the residual abrasives. All slabs were sterilized with ethylene oxide. The 30 specimens were randomly divided into 3 groups: PBS, 62.5 μg/mL NAP, and 0.2% CHX. Enamel slabs obtained from the same tooth were evenly distributed to each test group.
Overnight cultures of S. mutans, S. gordonii, and S. sanguinis (1 × 10^7CFU/mL) were simultaneously inoculated on enamel slabs in a 24-well cell culture plate with BHIS at 37°C. Slabs with biofilms were then exposed to PBS, 62.5 μg/mL NAP, and 0.2% CHX for 5 days (5 min, three times per day). The 5-day demineralization duration was in accordance with previous studies. All specimens were then washed in PBS and refreshed with BHIS after every exposure. After 5 days of treatment, specimens were taken out and rinsed with PBS to remove the biofilms. Then, specimens were cut again and polished with a hand plane—parallel from both sides with waterproof silicon carbide abrasive papers (800–4000 grit; Struers, Copenhagen, Denmark) to thickness ranging around […]. X-ray films of experimental lesions were acquired with an X-ray generator (Softex, Japan) equipped with a microradiography camera and then were further examined using a Zeiss AXIO Imager A2 microscope (Carl Zeiss, Germany). Quantitative data was acquired by a calibrated analysis system TMR2006 (Inspektor Research Systems BV, Netherlands). Data are obtained as the mean of 10 separate samples.

S. mutans biofilm [14] = assay: Biofilm formation inhibition, crystal violet (MBIC); format: cell-based, Streptococcus mutans; conditions: 24 h, 90% or more inhibition of biofilm formation
Protocol: as §1

[15] = design: method as in PMID 28573435, PMID 31241371; conditions: orally 240 mg twice a day, patients with advanced malignancies; cited from earlier work
[16] = 62.5 μg/mL NAP compared to 0.2% CHX

SMILES | total amount of streptococci [1] | MBIC (S. sanguinis biofilm [2]) [µg/mL] | MBRC (S. gordonii biofilm [3]) [µg/mL] | MBIC (S. gordonii biofilm [4]) [µg/mL] | MBRC (S. sanguinis biofilm [5]) [µg/mL] | MBC [6] [µg/mL] | MIC [6] [µg/mL] | MBC [7] [µg/mL] | MIC [7] [µg/mL] | MBC [8] [µg/mL] | MIC [8] [µg/mL] | IC50 [9] [µg/mL] | IC50 (macrophage RAW264.7) [µg/mL] | IC50 [10] [µg/mL] | MBRC (S. mutans biofilm [11]) [µg/mL] | structural integrity of multispecies biofilms ([12]; 62.5 μg/mL NAP) | depth of biofilm-induced lesion [13] | mineral loss of enamel [13] | MBIC (S. mutans biofilm [14]) [µg/mL] | further results
[H]/N=C(\N/C(=N/[H])NCCCCCCNC(=N)NC(=N)Nc1ccc(Cl)cc1)Nc1ccc(Cl)cc1 [CHX, Chlorhexidine] | significantly reduced the total amount of streptococci | 1.95 | 15.63 | 3.91 | 3.91 | 7.81 (≈ 15.5 µM) | 1.95 (≈ 3.86 µM) | 7.81 (≈ 15.5 µM) | 3.91 (≈ 7.74 µM) | 3.91 (≈ 7.74 µM) | 0.49 (≈ 0.969 µM) | 31.2 to 62.5 (≈ 61.8 to 124 µM) | 31.2 to 62.5 (≈ 61.8 to 124 µM) | 31.2 to 62.5 (≈ 61.8 to 124 µM) | 62.50 | disrupted the structural integrity of multispecies biofilms significantly | significantly reduced | significantly reduced | 0.98 | 
CC(=O)c1cc2c(o1)C(=O)c1ccccc1C2=O [NAP, 2-acetylfuro-1,4-naphathoquinone] | significantly reduced the total amount of streptococci | 1.95 | 15.63 | 0.49 | 3.91 | 15.6 (≈ 65.1 µM) | 3.91 (≈ 16.3 µM) | 0.98 (≈ 4.08 µM) | 0.49 (≈ 2.04 µM) | 15.6 (≈ 65.1 µM) | 0.49 (≈ 2.04 µM) | > 62.5 | > 62.5 | > 62.5 | 62.50 | disrupted the structural integrity of multispecies biofilms significantly | significantly reduced | significantly reduced | 1.95 | multispecies biofilm composition [1]: inhibited S. mutans and S. sanguinis but increased the proportion of the commensal S. gordonii; adverse events [15]: generally mild; EPS/bacteria ratio [12, 16]: equivalent; dead/live cell ratio [12, 16]: equivalent dead/live cell ratio; bacteria within the biofilms (volume) ([12]; 62.5 μg/mL NAP vs 0.2% CHX): further reduced the bacteria within the oral streptococcal biofilms as compared to CHX; EPS production in the biofilm ([12]; 62.5 μg/mL NAP): significantly inhibit EPS production
